Test results as given in patent US20090012067A1, “Modulation of Hypothalamic Atp-Sensitive Potassium Channels” (priority 2005, published 2009).

What was measured:
PEPCK = experiment: liver PEPCK mRNA by real-time PCR after the infusions; assay type: in vivo, Sprague-Dawley rats
Description: (§1) Gene expression. Gluconeogenic enzymes. Quantitative analysis of gene expression was done using RT-PCR. Total RNA was isolated with Trizol (Invitrogen) and single-strand cDNA was synthesized with a kit provided by Invitrogen. Real-time PCR reactions and the primers for G6Pase and PEPCK were done as described (Pocai et al., in press). The copy number of each transcript was derived from a standard curve of cloned target templates. Expression of each transcript was normalized to copy number for 18s ribosomal protein.

G6Pase = experiment: liver G6Pase mRNA by real-time PCR after the infusions; assay type: in vivo, Sprague-Dawley rats
Description: as §1

[1] = tested on: hypothalamic KATP channels; experiment: ICV infusion of insulin, KATP channel blocker (glibenclamide) or both with pancreatic-insulin clamp (1 mU/kg·min); assay type: in vivo, Sprague-Dawley rats; settings: for Direct: ICV infusion, direct pathway; for glucose infusion needed to prevent hypoglycemia: near basal circulating insulin levels
Description: Animal preparation for the in vivo experiments. Rats. Eighty-nine 10-week-old male Sprague-Dawley rats (Charles River Breeding Laboratories, Wilmington, Mass.) were studied. Rats were housed in individual cages and subjected to a standard light-dark cycle. Three weeks prior to the in vivo studies, chronic catheters were implanted in the third cerebral ventricle (Obici et al., 2003; Liu et al., 1998) or intrahypothalamically (Morton et al., 2003) (IH) by stereotaxic surgery. […] In vivo studies. For the studies in rats, the metabolic experiments were performed ˜3 weeks after stereotaxic surgery following complete recovery from the operation (FIG. 5). All solutions were diluted with artificial cerebral spinal fluid (aCSF). […] Euglycemic-hyperinsulinemic clamps in conscious, unrestrained, catheterized mice were performed for 90 min as previously described (Obici et al., 2003; Liu et al., 1998). Hepatic glucose fluxes. Rate of hepatic glucose fluxes was determined as described. Barzilai et al., 1997).

[2] = tested on: hepatic glucose production; experiment: pancreatic-hyperinsulinemic clamp (insulin 3 mU/kg·min) in SHAM and HV rats; assay type: in vivo, Sprague-Dawley rats; settings: for suppression of GP (glucose production): hyperinsulinemia ~3-fold over basal; for Direct / % Indirect: systemic insulin (3 mU); for Direct: direct pathway; for % Indirect: indirect pathway
Experimental: Panel A is a schematic representation of the pancreatic-hyperinsulinemic clamp procedure. At t=120 an infusion of labeled glucose was initiated and maintained for the remaining 4 hours of the study and a pancreatic hyperinsulinemic clamp was initiated at t=240 min and lasted for 2 hours. […] The figure is a longitudinal view of a rat brain, with olfactory bulb at the anterior end on the left and the caudal hindbrain on the right.
(§2) In vivo studies. For the studies in rats, the metabolic experiments were performed ˜3 weeks after stereotaxic surgery following complete recovery from the operation (FIG. 5). All solutions were diluted with artificial cerebral spinal fluid (aCSF). […] Euglycemic-hyperinsulinemic clamps in conscious, unrestrained, catheterized mice were performed for 90 min as previously described (Obici et al., 2003; Liu et al., 1998).
(§3) Selective hepatic branch vagotomy. One week before the clamp procedure a subgroup of rats underwent selective hepatic vagotomy (HV) or sham operation (SHAM). Anatomical nerve transactions was verified in each rat at sacrifice by microscopic observation of the absence of vagal nerve fibers in between the two silk sutures that had been placed along the trunk at the time of transection (la Fleur et al., 2003).
(§4) Hepatic glucose fluxes. Rate of hepatic glucose fluxes was determined as described. Barzilai et al., 1997).

[3] = target: T1, hypothalamic insulin receptors (Rattus norvegicus, UniProt P15127); experiment: ICV insulin in rats with hepatic branch vagotomy (HV), sham operation or vagal deafferentation, pancreatic-insulin clamp (1 mU/kg·min); assay type: in vivo, Sprague-Dawley rats
T1 construct: Paired groups of SHAM and HV rats received an ICV infusion of either insulin or vehicle; from tissue; host or cells: CNS / hypothalamus of living Sprague-Dawley rats (ICV infusion)
Description: Animal preparation for the in vivo experiments. Rats. Eighty-nine 10-week-old male Sprague-Dawley rats (Charles River Breeding Laboratories, Wilmington, Mass.) were studied. Rats were housed in individual cages and subjected to a standard light-dark cycle. Three weeks prior to the in vivo studies, chronic catheters were implanted in the third cerebral ventricle (Obici et al., 2003; Liu et al., 1998) or intrahypothalamically (Morton et al., 2003) (IH) by stereotaxic surgery.
as §2, §3
Selective vagal deafferentation. Nerve transection was performed as previously described, according to the methods of Norgren and Smith (Norgren & Smith, 1998).
as §4

[4] = tested on: KATP channels within the medial hypothalamus; experiment: Intrahypothalamic (IH) infusion of diazoxide or insulin with pancreatic-insulin clamp; assay type: in vivo, Sprague-Dawley rats; settings: for rate of glucose infusion required to prevent hypoglycemia: IH infusion during a pancreatic clamp, vs vehicle; for blood glucose levels / GP (glucose production): IH infusion; for blood glucose levels: bilateral, medial hypothalamus, total dose insulin 2 μU; for GP (glucose production): basal circulating insulin
Description: Animal preparation for the in vivo experiments. Rats. Eighty-nine 10-week-old male Sprague-Dawley rats (Charles River Breeding Laboratories, Wilmington, Mass.) were studied. Rats were housed in individual cages and subjected to a standard light-dark cycle. Three weeks prior to the in vivo studies, chronic catheters were implanted in the third cerebral ventricle (Obici et al., 2003; Liu et al., 1998) or intrahypothalamically (Morton et al., 2003) (IH) by stereotaxic surgery. One week before the pancreatic-insulin clamp protocols, rats received additional catheters in the right internal jugular and left carotid artery (FIG. 5) (Obici et al., 2003; Liu et al., 1998). In vivo studies. For the studies in rats, the metabolic experiments were performed ˜3 weeks after stereotaxic surgery following complete recovery from the operation (FIG. 5). All solutions were diluted with artificial cerebral spinal fluid (aCSF). […] Pancreatic-insulin clamp studies were performed as previously described (Liu et al., 1998). Euglycemic-hyperinsulinemic clamps in conscious, unrestrained, catheterized mice were performed for 90 min as previously described (Obici et al., 2003; Liu et al., 1998).

[5] = tested on: hypothalamic KATP channels; experiment: central infusion in rats on a high fat diet for three days (hepatic insulin resistance), glucose production; assay type: in vivo; settings: plasma insulin 20 μU/ml
Experimental: Additional experiments were also performed in rats maintained on a high fat diet regimen for three days.

central KATP channels = experiment: ICV infusion of diazoxide with pancreatic-insulin clamp (1 mU/kg·min) in conscious rats; assay type: in vivo, Sprague-Dawley rats
Description: Animal preparation for the in vivo experiments. Rats. Eighty-nine 10-week-old male Sprague-Dawley rats (Charles River Breeding Laboratories, Wilmington, Mass.) were studied. Rats were housed in individual cages and subjected to a standard light-dark cycle. Three weeks prior to the in vivo studies, chronic catheters were implanted in the third cerebral ventricle (Obici et al., 2003; Liu et al., 1998) or intrahypothalamically (Morton et al., 2003) (IH) by stereotaxic surgery. One week before the pancreatic-insulin clamp protocols, rats received additional catheters in the right internal jugular and left carotid artery (FIG. 5) (Obici et al., 2003; Liu et al., 1998). In vivo studies. For the studies in rats, the metabolic experiments were performed ˜3 weeks after stereotaxic surgery following complete recovery from the operation (FIG. 5). All solutions were diluted with artificial cerebral spinal fluid (aCSF). […] Pancreatic-insulin clamp studies were performed as previously described (Liu et al., 1998). Euglycemic-hyperinsulinemic clamps in conscious, unrestrained, catheterized mice were performed for 90 min as previously described (Obici et al., 2003; Liu et al., 1998). Hepatic glucose fluxes. Rate of hepatic glucose fluxes was determined as described. Barzilai et al., 1997).

[6] = ICV insulin with or without KATP channel blocker
[7] = selective vagal deafferentation, ability of central insulin not altered

T1 sequence (P15127 27-759 limits assumed): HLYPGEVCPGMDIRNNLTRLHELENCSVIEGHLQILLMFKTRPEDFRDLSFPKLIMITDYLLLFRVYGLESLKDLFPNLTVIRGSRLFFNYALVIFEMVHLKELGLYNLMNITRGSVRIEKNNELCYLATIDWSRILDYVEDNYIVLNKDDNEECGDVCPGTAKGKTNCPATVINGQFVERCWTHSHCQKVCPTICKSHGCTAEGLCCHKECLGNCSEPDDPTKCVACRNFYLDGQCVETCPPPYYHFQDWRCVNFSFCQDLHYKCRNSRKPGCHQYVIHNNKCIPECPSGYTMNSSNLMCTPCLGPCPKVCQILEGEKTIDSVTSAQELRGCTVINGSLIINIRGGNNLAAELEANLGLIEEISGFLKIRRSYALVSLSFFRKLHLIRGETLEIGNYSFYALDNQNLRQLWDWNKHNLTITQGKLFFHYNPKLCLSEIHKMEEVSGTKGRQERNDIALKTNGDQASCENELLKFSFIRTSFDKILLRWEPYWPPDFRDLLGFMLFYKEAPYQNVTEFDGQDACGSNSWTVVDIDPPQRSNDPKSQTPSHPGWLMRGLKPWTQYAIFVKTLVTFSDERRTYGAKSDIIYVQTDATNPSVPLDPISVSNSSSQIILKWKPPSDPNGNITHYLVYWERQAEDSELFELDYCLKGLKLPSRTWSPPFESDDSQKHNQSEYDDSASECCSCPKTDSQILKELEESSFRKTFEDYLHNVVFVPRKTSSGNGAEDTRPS
T1 sequence (P15127 764-1383 partner limits assumed): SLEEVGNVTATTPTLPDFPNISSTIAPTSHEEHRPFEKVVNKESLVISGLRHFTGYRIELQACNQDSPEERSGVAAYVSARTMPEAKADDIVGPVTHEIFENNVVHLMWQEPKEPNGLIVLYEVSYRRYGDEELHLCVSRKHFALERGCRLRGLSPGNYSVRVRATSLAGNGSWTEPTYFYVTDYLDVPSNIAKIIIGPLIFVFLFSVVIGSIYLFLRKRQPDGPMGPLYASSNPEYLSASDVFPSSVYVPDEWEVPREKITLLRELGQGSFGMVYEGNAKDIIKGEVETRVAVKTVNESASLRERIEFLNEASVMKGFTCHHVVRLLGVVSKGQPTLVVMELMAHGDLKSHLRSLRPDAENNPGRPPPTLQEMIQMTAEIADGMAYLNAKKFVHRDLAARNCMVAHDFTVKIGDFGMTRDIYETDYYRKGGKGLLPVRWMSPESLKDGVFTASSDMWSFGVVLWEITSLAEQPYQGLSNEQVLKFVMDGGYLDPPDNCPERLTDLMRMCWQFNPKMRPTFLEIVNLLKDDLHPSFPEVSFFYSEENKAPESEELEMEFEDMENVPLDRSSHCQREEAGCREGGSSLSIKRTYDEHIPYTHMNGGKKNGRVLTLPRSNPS

insulin
liver PEPCK mRNA levels (PEPCK; HV, ICV insulin): not in HV rats
liver PEPCK mRNA levels (PEPCK; [6]): marked KATP channels dependent decreases
liver PEPCK mRNA levels (PEPCK; SHAM, ICV insulin): marked decrease
liver G6Pase mRNA levels (G6Pase; [6]): marked KATP channels dependent decreases
liver G6Pase mRNA levels (G6Pase; SHAM, ICV insulin): marked decrease
in vivo flux through G6Pase ([1]; ICV): markedly decreased
Direct [1]: 12.1 ± 0.7%
decrease in GP (glucose production) ([1]; ICV insulin 30 μU, basal and equal insulin levels (~20 μU/ml)): 52±8%
glucose infusion needed to prevent hypoglycemia ([1]; ICV): glucose infusion was required to prevent hypoglycemia
rate of glucose disposal (uptake) ([1]; ICV, pancreatic-insulin clamp): not significantly affected
Glucose ([2]; HV, Clamp, systemic insulin 3 mU/Kg·min): 8.1 ± 0.5 mM
suppression of GP (glucose production) ([2]; HV): 38±11%
Direct ([2]; HV): 22.0 ± 2.3%
% Indirect ([2]; HV): 60.7 ± 9.4 %
suppression of GP (glucose production) ([2]; SHAM): 80±8%
Direct ([2]; SHAM): 22.8 ± 3.9%
% Indirect ([2]; SHAM): 34.5 ± 6.7%
^14C-PEP ([3]; HV, ICV): 5.5 ± 1.4 dpm/nmol
glucose infusion needed to prevent hypoglycemia ([3]; HV, ICV insulin): not in the HV rats
hepatic glucose fluxes ([3]; HV, ICV insulin): failed to affect hepatic glucose fluxes
^3H-Glucose Plasma SA ([3]; SHAM, ICV): 43.1 ± 1.9 dpm/nmol
^3H-UDPglucose Liver SA ([3]; SHAM, ICV): 5.5 ± 0.5 dpm/nmol
gluconeogenesis ([3]; SHAM, ICV insulin): marked inhibition of gluconeogenesis
glucose infusion needed to prevent hypoglycemia ([3]; SHAM, ICV insulin): glucose infusion was required to prevent hypoglycemia
in vivo flux through G6Pase ([3]; SHAM, ICV insulin): markedly decreased
Direct ([3]; SHAM, ICV, direct pathway): 12.1 ± 0.7%
rate of glucose uptake ([3]; either SHAM or HV rats, ICV): not significantly affected
GP (glucose production) [3, 7]: suppress GP
blood glucose levels [3, 7]: lower blood glucose levels
rate of glucose infusion required to prevent hypoglycemia [4]: significant increases
blood glucose levels [4]: reproduced the potent effects of ICV insulin or diazoxide
GP (glucose production) [4]: reproduced the potent effects of ICV insulin or diazoxide
glucose production ([5]; central administration): failed to significantly inhibit glucose production

COc1ccc(Cl)cc1C(=O)NCCc1ccc(S(=O)(=O)NC(=O)NC2CCCCC2)cc1 [glibenclamide, 5-Chloro-N-[2-[4-(3-cyclohexylureidosulfonyl)phenyl]-ethyl]-2-methoxybenzamide, reference compound]
Direct [1]: 18.5 ± 2.8%
GP (glucose production) ([1]; ICV, blocker alone or co-infused with insulin): did not per se affect GP
glucose infusion needed to prevent hypoglycemia ([1]; ICV): did not modify the rate of glucose infusion

CC1=NS(=O)(=O)c2cc(Cl)ccc2N1 [diazoxide, reference compound]
glucose cycling (central KATP channels; ICV): significantly reduced
in vivo flux through G6Pase (central KATP channels; ICV): decreased the flux through G6Pase
Direct (central KATP channels; ICV infusion, direct pathway): 14.37 ± 2.2%
decrease in GP (glucose production) (central KATP channels; ICV, 1.5 nmol, basal insulin levels (~20 μU/ml)): 45±4%
glucose infusion needed to prevent hypoglycemia (central KATP channels; ICV, basal circulating insulin levels): glucose infusion was required to prevent hypoglycemia
liver PEPCK mRNA levels (PEPCK; ICV diazoxide study): markedly decreased
liver G6Pase mRNA levels (G6Pase; ICV diazoxide study): markedly decreased
rate of glucose infusion required to prevent hypoglycemia [4]: significant increases
blood glucose levels [4]: lowered blood glucose levels
GP (glucose production) [4]: marked suppression of GP
inhibition of glucose production ([5]; ICV or intrahypothalamic infusion): ~45%
